Reference: the NIST ThermoML archive (doi:10.1016/j.jct.2019.01.028)

Columns and labels:
[1] = xn = mol fraction of the nth substance listed; conditions: transient hot wire
[2] = 100 kPa, Liquid, transient hot wire

F/C=C/C(F)(F)F [trans-1,3,3,3-tetrafluoropropene] + C=C(F)C(F)(F)F
[1], x1 = 0.5
Conditions	thermal conductivity [W/m/K]
274.82 K, 1240 kPa, Liquid	0.0766
294.69 K, 1080 kPa, Liquid	0.0689
303.67 K, 2050 kPa, Liquid	0.0679
303.96 K, 2960 kPa, Liquid	0.0715
323.14 K, 2920 kPa, Liquid	0.0633
324.62 K, 2070 kPa, Liquid	0.0622
355.01 K, 940 kPa, Gas	0.01929
375.04 K, 1740 kPa, Gas	0.02197
375.09 K, 1010 kPa, Gas	0.02168
393.98 K, 1860 kPa, Gas	0.02321
394.38 K, 2520 kPa, Gas	0.0246
414.22 K, 2920 kPa, Gas	0.02633

F/C=C/C(F)(F)F [trans-1,3,3,3-tetrafluoropropene] + CC(F)(F)F
[1], x2 = 0.5
Conditions	thermal conductivity [W/m/K]
264.94 K, 910 kPa, Liquid	0.0772
285.99 K, 2120 kPa, Liquid	0.0752
286.02 K, 1020 kPa, Liquid	0.0742
304.35 K, 2020 kPa, Liquid	0.069
304.36 K, 3040 kPa, Liquid	0.0685
324.01 K, 2890 kPa, Liquid	0.0624
345.02 K, 950 kPa, Gas	0.01913
364.82 K, 1040 kPa, Gas	0.02103
364.82 K, 1730 kPa, Gas	0.02117
384.54 K, 1920 kPa, Gas	0.02317
384.6 K, 2540 kPa, Gas	0.02357
404.05 K, 2960 kPa, Gas	0.02606

F/C=C/C(F)(F)F [trans-1,3,3,3-tetrafluoropropene] + FC(F)C(F)(F)F
[1], x2 = 0.5
Conditions	thermal conductivity [W/m/K]
262.72 K, 1000 kPa, Liquid	0.0781
285.7 K, 1080 kPa, Liquid	0.0737
285.77 K, 2060 kPa, Liquid	0.0738
304.23 K, 1940 kPa, Liquid	0.0636
304.8 K, 3080 kPa, Liquid	0.0688
324.33 K, 3020 kPa, Liquid	0.0618
333.94 K, 1120 kPa, Gas	0.01783
353.67 K, 1810 kPa, Gas	0.01927
353.84 K, 1230 kPa, Gas	0.01927
373.56 K, 2020 kPa, Gas	0.02145
373.67 K, 3040 kPa, Gas	0.02479
395.41 K, 3040 kPa, Gas	0.02441

F/C=C/C(F)(F)F [trans-1,3,3,3-tetrafluoropropene] + FCC(F)(F)F
[1], x2 = 0.5
Conditions	thermal conductivity [W/m/K]
274.68 K, 980 kPa, Liquid	0.0884
305.14 K, 3140 kPa, Liquid	0.0754
305.18 K, 1040 kPa, Liquid	0.0739
305.22 K, 2040 kPa, Liquid	0.0736
324.82 K, 2960 kPa, Liquid	0.0627
326.02 K, 2030 kPa, Liquid	0.0621
344.05 K, 870 kPa, Gas	0.01922
364.05 K, 990 kPa, Gas	0.02123
364.13 K, 2030 kPa, Gas	0.02192
383.85 K, 2230 kPa, Gas	0.02365
384.09 K, 3030 kPa, Gas	0.02611
403.87 K, 3020 kPa, Gas	0.02684

O [water]
[2]
Conditions	thermal conductivity [W/m/K]
292.8 K	0.6012
295.01 K	0.605
303.13 K	0.6184
303.93 K	0.6193
305.47 K	0.622
314.01 K	0.6259
314.95 K	0.6275
334.75 K	0.6479
336.26 K	0.6496
